Starred links: 1 amine or outer side, 2 acyl side, 3 side chain; linkers in the order of their positions; H or OH if unused. Positions of bridges follow the written chain, without caps; N, C: chain ends. Non-standard residues stand in square brackets, D forms with d. Residues, ends and D or L forms follow the SMILES beside them. Chains are numbered I, II in the order given. Actinocin(9to1) = Cc1c2oc3c(C)ccc(C(=O)[*:1])c3nc-2c(C(=O)[*:2])c(N)c1=O; NMeV = CN[C@H](C(=O)O)C(C)C; Nle = CCCC[C@H](N)C(=O)O; Sar = CNCC(=O)O
System: OPN promoter
Assay: OPN promoter luciferase reporter assay in metastatic melanoma cell lines
Format: cell-based, human
Conditions: MCC012A and MCC012F cell lines; tomatidine
Source text: Empty pGL3 vector was used as control. […] Readings were normalized to total protein content. Each parameter was studied in triplicate and the experiment repeated at least 3 times. The data are represented as percent luciferase activity, which was derived as a percent of the relative light units in treated groups compared with the untreated groups.

| Molecule | promoter activity of OPN |
| --- | --- |
| C[C@H]1CC[C@]2(NC1)O[C@H]1C[C@H]3[C@@H]4CC[C@H]5C[C@@H](O)CC[C@]5(C)[C@H]4CC[C@]3(C)[C@H]1[C@@H]2C [Tomatidine, tomatidine] | no effect |

System: ERCC1
Assay: not given
Conditions: A2780-CP70; cited from earlier work

| Molecule | ERCC1 up-regulation after cisplatin exposure |
| --- | --- |
| CC[C@H](C)[C@@H]1NC(=O)CNC(=O)[C@@H]2Cc3c([nH]c4cc(O)ccc34)[S+]([O-])C[C@@H](NC(=O)CNC1=O)C(=O)N[C@@H](CC(N)=O)C(=O)N1C[C@H](O)C[C@H]1C(=O)N[C@@H]([C@@H](C)[C@@H](O)CO)C(=O)N2 (stereo in doubt) [α-amanitin] | blunted ERCC1 up-regulation |
| CCCC[C@@H](C=O)NC(=O)[C@H](CC(C)C)NC(=O)[C@H](CC(C)C)NC(C)=O [N-acetyl-leucyl-leucyl-norleucinal] (Ac-Leu-Leu-[Nle]-aldehyde) | blunted ERCC1 up-regulation |
| Cc1cc(C)c(/C=C2\C(=O)Nc3ccccc32)[nH]1 [SU5416] | blunted ERCC1 up-regulation |
| Cc1c2oc3c(C)ccc(C(=O)N[C@@H]4C(=O)N[C@H](C(C)C)C(=O)N5CCC[C@H]5C(=O)N(C)CC(=O)N(C)[C@@H](C(C)C)C(=O)O[C@@H]4C)c3nc-2c(C(=O)N[C@@H]2C(=O)N[C@H](C(C)C)C(=O)N3CCC[C@H]3C(=O)N(C)CC(=O)N(C)[C@@H](C(C)C)C(=O)O[C@@H]2C)c(N)c1=O [actinomycin D] (I: T[dV]P[Sar][NMeV] / II: T[dV]P[Sar][NMeV]; ester I:1-I:C, II:1-II:C; linker I:N-II:N via Actinocin(9to1)) | blunted ERCC1 up-regulation |
| [Cr] [chromium] | blunted ERCC1 up-regulation |
| C[C@@H]1C[C@@H]([C@H](O)CC2CC(=O)NC(=O)C2)C(=O)[C@@H](C)C1 [cycloheximide] | blunted ERCC1 up-regulation |
| CO[C@H]1[C@@H](OC)C[C@H](C)[C@@H](OC)C2=CC(=O)C=C(NC(=O)/C(C)=C/C=C\[C@H](OC)[C@@H](OC(N)=O)/C(C)=C/[C@@H]1C)C2=O [herbimycin A] | blunted ERCC1 up-regulation |
| CC(=O)N[C@@H](CSC(=O)[C@]1([C@@H](O)C(C)C)NC(=O)[C@H](C)[C@@H]1O)C(=O)O [lactacystin] | blunted ERCC1 up-regulation |
| [Pt] [platinum] | blunted ERCC1 up-regulation |
| interleukin 1-α (protein, UniProt P01583 113-271, looked up) Interleukin-1 alpha: SAPFSFLSNVKYNFMRIIKYEFILNDALNQSIIRANDQYLTAAALHNLDEAVKFDMGAYKSSKDDAKITVILRISKTQLYVTAQDEDQPVLLKEMPEIPKTITGSETNLLFFWETHGTKNYFTSVAHPNLFIATKQDYWVCLAGGPPSITDFQILENQA | blunted ERCC1 up-regulation |

System: ERCC1, XPD, XRCC1
Assay: not given
Conditions: previous experiments; agents at IC50 doses; cited from earlier work

| Molecule | ERCC1, XPD, or XRCC1 regulation |
| --- | --- |
| CCCCCCCCCCCCCC(=O)O[C@@H]1[C@@H](C)[C@@]2(O)[C@@H](C=C(CO)C[C@]3(O)C(=O)C(C)=C[C@@H]23)[C@@H]2C(C)(C)[C@]12OC(C)=O [phorbol ester] | up-regulated |
